# Results reported in publication PMC8153426, “EfgA is a conserved formaldehyde sensor that leads to bacterial growth arrest in response to elevated formaldehyde” (PLoS Biology, 2021).
# T1: EfgA (Methylorubrum extorquens, UniProt P0DX96)
# T1 construct: recombinant EfgA with C-terminal 6X-His tag
# T1 sequence (P0DX96 1-144): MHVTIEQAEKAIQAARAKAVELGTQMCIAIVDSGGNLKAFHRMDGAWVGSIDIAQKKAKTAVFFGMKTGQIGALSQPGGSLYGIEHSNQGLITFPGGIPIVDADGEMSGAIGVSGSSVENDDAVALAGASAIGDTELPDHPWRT
# Key:
# EfgA [1] = biological target: T1, EfgA; test: microscale thermophoresis (Kd), confirmed by mITC; format: binding
# Source text: microscale thermophoresis (Kd), confirmed by mITC on EfgA | MST was used to both independently confirm the interaction of EfgA with formaldehyde and permit calculation of its affinity
# EfgA [2] = biological target: T2, EfgA (Methylorubrum extorquens, UniProt P0DX96); test: X-ray crystal structure of formaldehyde-soaked crystals, […] Å; format: binding
# T2 construct: N-terminal His-tagged EfgA, homotetramer
# [3] = biological target: the molecule itself; test: crystal structure; apo EfgA crystals (0.2 M potassium fluoride, 2.2 M ammonium sulfate, 10°C) and crystals with 16.6 mM formaldehyde (0.2 M KNO3, 2.2 M ammonium sulfate, 10°C); 4 molecules per asymmetric unit
molecule,measurement,setting,value
C=O [formaldehyde],Kd,EfgA [1],8.01 ± 3.5 mM
OCOCO [oxydimethanol],"X-ray crystal structure of formaldehyde-soaked crystals, 1.83 Å",EfgA [2],"In three EfgA monomers, new densities were modeled as oxydimethanol"
"EfgA (Mext_4158, DUF336 protein) from Methylorubrum extorquens PA1, N-terminal His-tagged derivative (natural protein, EfgA, product of Mext_4158 of Methylorubrum extorquens PA1; single-domain 144 amino acid protein with a DUF336 domain; Residue numbers S114, D121, K57 are said to correspond to the native EfgA protein; The simulations count 134 EfgA residues in the structure against 144 in the gene product; also called EfgA^WT; enhanced formaldehyde growth protein A; not shown: His6 (thrombin cleavable), …) MHVTIEQAEKAIQAARAKAVELGTQMCIAIVDSGGNLKAFHRMDGAWVGSIDIAQKKAKTAVFFGMKTGQIGALSQPGGSLYGIEHSNQGLITFPGGIPIVDADGEMSGAIGVSGSSVENDDAVALAGASAIGDTELPDHPWRT",stoichiometry N,[3],4
